Reference: patent publication US9623121B2, “Optical-imaging probe for detecting sentinel lymph nodes which contains a composite of poly-gamma-glutamic acid and an optical-imaging dye” (BIOLEADERS CORPORATION, priority 2010, dated 2017)

Columns and labels:
[1] = In vivo near-infrared imaging of the sentinel lymph node after subcutaneous footpad injection; set-up: species or system BALB/c nude mice; conditions: 0.01% solution, 50 μl s.c. into left forefoot, 30 minutes after injection
Procedure: In animal tests, 6-week-old female BALB/c nude mice (SLC Inc., Japan) with no pathogens were used. All the tests were performed under the approval of the Laboratory Animal Center, Chungnam National University.
For data acquisition and analysis, images (see FIG. 3) were obtained using a home-made NIR optical imaging system (see FIG. 2) manufactured by the present inventors. Herein, the near-infrared optical imaging system comprises a light source consisting of a 500 mW fiber-type laser, an emission filter, a lens system equipped with a microzoom, and a near-infrared detector (NIR CCD detector) (see FIG. 2). In the near infrared imaging system, the intensity of fluorescence appears as a pseudo color, and more red fluorescence indicates stronger intensity.
Before imaging, mice were anesthetized by intraperitoneally injecting a 2.5% avertin (2,2,2-tribromoethanol-tert-amyl alcohol, Sigma) solution at a dose of 0.01 Ml/g weight. 50 μl of each of an ICG solution (0.01%), ICG/γ-PGA (50 kDa) complex solutions (0.01%, 0.1% and 1%) and ICG/γ-PGA (7000 kDa) complex solutions (0.01%, 0.1% and 1%) was injected into the left forefoot of each nude mouse (footpad, subcutaneous injection), and after 5 min, 20 min and 30 min, the fluorescence of the sentinel lymph node was measured. […]

[2] = Light stability: near-infrared fluorescence intensity of solutions kept at room temperature for 3 days; type: physicochemical; conditions: 50 μl of solution (0.01% ICG) in tube, after 3 days
Procedure: 50 μl of the prepared ICG/γ-PGA complex solution was dispensed into a 1.5 Ml tube, and then the near-infrared fluorescence spectrum thereof was measured using a fluorescence spectrophotometer (FluoroMate FS-2) (see FIG. 1).

For `CC1(C)C(/C=C/C=C/C=C/C=C2\N(CCCCS(=O)(=O)O)c3ccc4ccccc4c3C2(C)C)=[N+](CCCCS(=O)(=O)[O-])c2ccc3ccccc3c21` [ICG, Indocyanine green], the “intensity of fluorescence emitted from the sentinel lymph node” value [1] was “very weak”, the “retention in the sentinel lymph node / migration to other lymph nodes” value [1] was “did not remain in the sentinel lymph node and migrated to other lymph node” and the “fluorescence intensity (light stability)” value [2] was “rapidly decreased”.
